The text below walks through data of patent US20250163074A1, “CDK Inhibitors And Their Use As Pharmaceuticals” (Prelude Therapeutics Incorporated, priority 2020, published 2025).

The target in one series is CDK4/Cyclin D1 (Homo sapiens (Human), UniProt P11802). Briefly: CDK4/CyclinD1 enzymatic activity assay (TR-FRET). The format is biochemical. The settings on record: CDK4/CyclinD1 1 nM, ATP 2 mM, read-out: CDK4_D1 IC50. In outline: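 Insect-cell CDK4/Cyclin D1 (1 nM) with ULight-4E-BP1 (100 nM) and 2 mM ATP in HEPES pH 7.4 buffer, preincubated 20 min with compound (9-dose, 3-fold dilutions); 10 mM MgCl2 started the reaction, run 60 min at 37 °C. EDTA/Eu-anti-phospho-4E-BP1 TR-FRET detection; IC50 from 4-parameter Hill fit.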
Sequence of CDK4/Cyclin D1 (P11802 whole entry): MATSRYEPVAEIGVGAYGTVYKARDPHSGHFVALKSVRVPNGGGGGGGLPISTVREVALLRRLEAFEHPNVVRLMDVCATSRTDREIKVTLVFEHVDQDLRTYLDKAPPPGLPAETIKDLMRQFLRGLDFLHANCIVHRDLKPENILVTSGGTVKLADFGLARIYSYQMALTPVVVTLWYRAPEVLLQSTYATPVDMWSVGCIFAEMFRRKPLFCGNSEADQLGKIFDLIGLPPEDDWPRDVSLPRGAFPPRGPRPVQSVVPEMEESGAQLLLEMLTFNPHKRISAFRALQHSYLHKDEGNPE
Sequence of CDK4/Cyclin D1 (P24385 whole entry partner): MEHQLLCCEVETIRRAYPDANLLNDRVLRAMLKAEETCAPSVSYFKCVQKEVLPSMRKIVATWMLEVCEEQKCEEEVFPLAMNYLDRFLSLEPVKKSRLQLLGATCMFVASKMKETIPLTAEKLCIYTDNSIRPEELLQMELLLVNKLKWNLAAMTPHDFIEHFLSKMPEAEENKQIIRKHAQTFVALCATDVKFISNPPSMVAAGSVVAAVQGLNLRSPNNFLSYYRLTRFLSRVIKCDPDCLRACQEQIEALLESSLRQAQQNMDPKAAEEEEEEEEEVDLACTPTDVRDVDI
For orientation: In TR-FRET formats the signal depends on donor and acceptor labels being close together.

A further series has as its target CDK6/Cyclin D1 (Homo sapiens (Human), UniProt Q00534). The series can be described thus: CDK6/CyclinD1 enzymatic activity assay (TR-FRET). Format: biochemical. The settings on record: CDK6/Cyclin D1 1 nM, ATP 250 μM, read-out: CDK6_D1 IC50. In outline: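 Insect-cell-expressed CDK6/Cyclin D1 (1 nM) phosphorylated ULight-4E-BP1 (100 nM) with 250 μM ATP in HEPES pH 7.4 buffer. After 20 min compound preincubation, reactions were started with 10 mM MgCl2 and run 60 min at 37 °C. EDTA-quenched samples were read by TR-FRET with Eu-anti-P-4E-BP1; IC50 from 9-dose 4-parameter fits.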

For series [1], the system named is MCF7 adenocarcinoma cell line. Briefly: Cell proliferation studies in MCF7 cells (ATP-Lite). Format: cell-based. The settings on record: Homo sapiens, 240 h, 10 days incubation, cell viability by ATP-Lite luminescence, read-out: PROLIFERATION_CTG_MCF7 IC50. In outline: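 MCF7 cells, seeded at 100 or 200 cells/well, were exposed for 10 days at 37 °C to a 9-point, 3-fold dilution series in quadruplicate, with media exchange and re-dosing on day 5. Viability was read by ATP-Lite luminescence, normalized to background and DMSO, and fitted for IC50.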

Series [2] in a line: Brain-to-plasma ratio determination in Sprague-Dawley rats. The format is in vivo. Particulars: rat, male Sprague-Dawley rats, four hours after a single oral dose (3, 4, 5, or 10 mg/kg). The procedure: Example B: Brain-to-Plasma Ratio Determination in Sprague-Dawley Rats
The brain-to-plasma ratio (Kp) was determined in male Sprague-Dawley rats (7-9 weeks old) four hours after a single oral dose. Rats were acclimated and given free access to standard rodent chow and water throughout the entire study. Test articles were formulated as a solution at 0.3, 0.4, 0.5, or 1.0 mg/mL in a vehicle comprised of 10:15:75 (v:v:v) dimethylacetamide (DMA):Solutol HS15:water and delivered orally at a rate of 10 mL/kg to three rats to achieve final doses of 3, 4, 5, or 10 mg/kg, respectively. At 4 hours post-dose, blood samples were collected via jugular vein cannula into tubes containing K2EDTA as the anticoagulant and stored on ice. Blood samples were then centrifuged at 4° C. at 6000 rpm for 5 minutes, and the resulting plasma was placed into tubes and stored frozen at −80° C. until analysis. Whole brain samples were also collected at 4 hours post-dose. The weight of each brain was measured and recorded, and samples were immediately stored on dry ice. Brain samples were then transferred to storage at −80° C. until analysis.
Prior to analysis, brain samples were combined with water (4 mL/1 gram of brain) and homogenized. Prior to injection, plasma and brain homogenate samples and standards were prepared for analysis by precipitation with acetonitrile or 1:1 (v:v) methanol:acetonitrile. Samples were then thoroughly mixed, centrifuged at 4000 rpm for 15 minutes, and the resulting supernatant was transferred for analysis. Test article concentrations in plasma and brain homogenate were then determined by LC-MS/MS and quantified against calibration standards prepared to known concentrations in matched blank (analyte-free) biological matrix. The Kp was then determined by dividing the dilution-corrected brain concentration by the plasma concentration from each rat. A brain density of 1 gram/mL was assumed for all calculations.

Structures are written as SMILES.

Sequence of CDK6/Cyclin D1 (Q00534 whole entry): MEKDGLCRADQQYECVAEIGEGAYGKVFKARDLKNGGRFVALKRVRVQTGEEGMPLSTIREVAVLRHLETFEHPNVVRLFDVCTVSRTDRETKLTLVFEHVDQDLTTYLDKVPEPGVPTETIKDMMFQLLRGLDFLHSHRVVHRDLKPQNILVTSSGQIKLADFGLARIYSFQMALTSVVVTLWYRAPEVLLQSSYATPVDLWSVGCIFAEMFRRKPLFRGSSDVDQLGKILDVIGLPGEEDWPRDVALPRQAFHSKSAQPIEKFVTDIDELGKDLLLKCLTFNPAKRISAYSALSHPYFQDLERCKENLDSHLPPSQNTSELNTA
Sequence of CDK6/Cyclin D1 (P24385 whole entry partner): as the sequence (P24385 whole entry partner) above

Turning to `CN1CCC(c2ccc(Nc3ncc(F)c(-c4cc5c(s4)C4(CCC4)CN(C)C5=O)n3)nc2)CC1` [Example 47, 2′-(5-Fluoro-2-((5-(1-methyl-piperidin-4-yl)pyridin-2-yl)amino)pyrimidin-4-yl)-5′-methyl-5′,6′-dihydro-4′H-spiro[cyclobutane-1,7′-thieno[3,2-c]pyridin]-4′-one], the results for the IC50 (at CDK4/Cyclin D1; on CDK6/Cyclin D1; in series [1]) were at most 20 nM, 20 to 200 nM and 20 to 200 nM, respectively. For the same molecule, the Kp (commonly tissue or fluid exposure divided by exposure in the circulation) at 4 h in series [2] was 1 to 3.
`Cc1c(-c2nc(Nc3ccc(C4CCN(C)CC4)cn3)ncc2F)sc2c1C(=O)N(C)CC21CCC1` [Example 48, 2′-(5-Fluoro-2-((5-(1-methyl-piperidin-4-yl)pyridin-2-yl)amino)pyrimidin-4-yl)-3′,5′-dimethyl-5′,6′-dihydro-4′H-spiro[cyclobutane-1,7′-thieno[3,2-c]pyridin]-4′-one]: the IC50 was at most 20 nM on CDK4/Cyclin D1, at most 20 nM at CDK6/Cyclin D1 and 20 to 200 nM in series [1]. Further, in series [2], the Kp at 4 h was at least 3.
Consider `CN1CCN(c2ccc(Nc3ncc(F)c(-c4cc5c(s4)C4(CCC4)CN(C)C5=O)n3)nc2)CC1` [Example 50, 2′-(5-Fluoro-2-((5-(4-methyl-piperazin-1-yl)pyridin-2-yl)amino)pyrimidin-4-yl)-5′-methyl-5′,6′-dihydro-4′H-spiro[cyclobutane-1,7′-thieno[3,2-c]pyridin]-4′-one], for which the IC50 on CDK4/Cyclin D1 is at most 20 nM; on CDK6/Cyclin D1, at most 20 nM; in series [1], 20 to 200 nM. The Kp at 4 h in series [2] is at least 3.
Consider `Cc1c(-c2nc(Nc3ccc(N4CCC5(CCN(C)C5)C4)cn3)ncc2F)sc2c1C(=O)N(C)CC21CCC1` (centres unmarked) [Example 55, 2′-(5-Fluoro-2-((5-(7-methyl-2,7-diazaspiro[4.4]nonan-2-yl)pyridin-2-yl)amino)pyrimidin-4-yl)-3′,5′-dimethyl-5′,6′-dihydro-4′H-spiro[cyclobutane-1,7′-thieno[3,2-c]pyridin]-4′-one], for which the IC50 is at most 20 nM on CDK4/Cyclin D1, at most 20 nM at CDK6/Cyclin D1 and 20 to 200 nM in series [1]. Further, the partition ratio (Kp) at 4 h in series [2] is under 1.
In the case of `Cc1cnc(Nc2ccc(C3CCN(C)CC3)cn2)nc1-c1cc2c(s1)C1(CCC1)CN(C)C2=O` [Example 59, 5-Methyl-2-[5-methyl-2-[[5-(1-methylpiperidin-4-yl)pyridin-2-yl]amino]pyrimidin-4-yl]spiro[6H-thieno[3,2-c]pyridine-7,1′-cyclobutane]-4-one], the IC50 (on CDK4/Cyclin D1; at CDK6/Cyclin D1; in series [1]) was at most 20 nM each time. Moreover, the Kp at 4 h in series [2] lay in the range of 1 to 3.
`Cc1c(-c2nc(Nc3ccc(C4CCN(C)CC4)cn3)ncc2F)sc2c1C(=O)N(C)CC21CCCC1` [Example 63, 2′-(5-Fluoro-2-((5-(1-methyl-piperidin-4-yl)pyridin-2-yl)amino)pyrimidin-4-yl)-3′,5′-dimethyl-5′,6′-dihydro-4′H-spiro[cyclopentane-1,7′-thieno[3,2-c]pyridin]-4′-one]: the figures for the IC50 (on CDK4/Cyclin D1; at CDK6/Cyclin D1; in series [1]) were at most 20 nM, at most 20 nM and 20 to 200 nM, respectively. Further, the Kp at 4 h in series [2] is at least 3.
Consider `CCN1CC2(C1)CN(c1ccc(Nc3ncc(F)c(-c4ccc5c(c4)C4(CCCC4)CN(C)C5=O)n3)nc1)C2` [Example 66, 6′-(2-((5-(6-Ethyl-2,6-diazaspiro[3.3]heptan-2-yl)pyridin-2-yl)amino)-5-fluoropyrimidin-4-yl)-2′-methyl-2′,3′-dihydro-1′H-spiro[cyclopentane-1,4′-isoquinolin]-1′-one], for which the IC50 was at most 20 nM on CDK4/Cyclin D1, 20 to 200 nM at CDK6/Cyclin D1 and 20 to 200 nM in series [1]. Moreover, in series [2], the Kp at 4 h was in the range of 1 to 3.
For `CN1CCC(c2ccc(Nc3ncc(F)c(-c4ccc5c(c4)C4(CCCC4)CN(C)C5=O)n3)nc2)CC1` [Example 67, 6′-(5-Fluoro-2-((5-(1-methyl-piperidin-4-yl)pyridin-2-yl)amino)pyrimidin-4-yl)-2′-methyl-2′,3′-dihydro-1′H-spiro[cyclopentane-1,4′-isoquinolin]-1′-one], the IC50 on CDK4/Cyclin D1 was at most 20 nM; on CDK6/Cyclin D1, 20 to 200 nM; in series [1], 20 to 200 nM. Further, the Kp at 4 h in series [2] was at least 3.
For `CCN1CCC(c2ccc(Nc3ncc(F)c(-c4sc5c(c4C)C(=O)N(C)C54CC4)n3)nc2)C1` (centres unmarked) [Example 71, 2′-[2-[[5-(1-Ethylpyrrolidin-3-yl)pyridin-2-yl]amino]-5-fluoropyrimidin-4-yl]-3′,5′-dimethylspiro[cyclopropane-1,6′-thieno[2,3-c]pyrrole]-4′-one], the IC50 on CDK4/Cyclin D1 is at most 20 nM; on CDK6/Cyclin D1 it was at most 20 nM; in series [1], 20 to 200 nM. In series [2], the Kp at 4 h was 1 to 3.
Consider `CCN1CC2(C1)CN(c1ccc(Nc3ncc(F)c(-c4ccc5c(c4)C4(CCCC4)N(C)C5=O)n3)nc1)C2` [Example 78, 6′-(2-((5-(6-Ethyl-2,6-diazaspiro[3.3]heptan-2-yl)pyridin-2-yl)amino)-5-fluoropyrimidin-4-yl)-2′-methylspiro[cyclopentane-1,1′-isoindolin]-3′-one], for which the values for the IC50 (at CDK4/Cyclin D1; at CDK6/Cyclin D1; in series [1]) were at most 20 nM, 20 to 200 nM and 20 to 200 nM, respectively. The Kp at 4 h in series [2] fell in the range of 1 to 3.
On to `CCN1CC2(CC(c3ccc(Nc4ncc(F)c(-c5sc6c(c5C)C(=O)N(C)C65CC5)n4)nc3)C2)C1` [Example 81, 2′-(2-((5-(2-Ethyl-2-azaspiro[3.3]heptan-6-yl)pyridin-2-yl)amino)-5-fluoropyrimidin-4-yl)-3′,5′-dimethylspiro[cyclopropane-1,6′-thieno[2,3-c]pyrrol]-4′(5′H)-one], for which the IC50 (at CDK4/Cyclin D1; at CDK6/Cyclin D1; in series [1]) was at most 20 nM throughout. Also, in series [2], the Kp at 4 h is under 1.
